Calls of active or inactive are those of the source. No cut-off for these calls is given here.
Assays:
[1] = test system: L02; assay: Cytotoxicity against human L02 cells assessed as inhibition of cell proliferation measured after 72 hrs by MTT assay; assay type: cell-based; details: L02, 72 h
[2] = test system: A-431; assay: Induction of apoptosis in human A-431 cells assessed as necrotic cells at 8 uM measured after 48 hrs by Annexin V-FITC staining based flow cytometry (reference value: 0.21%); assay type: functional
[3] = species: Homo sapiens; assay: Inhibition of PI3K (unknown origin) using FAM-labelled peptide as substrate at 1 uM incubated for 10 mins in presence of ATP measured by mobility shift assay
[4] = test system: A-431; assay: Induction of apoptosis in human A-431 cells assessed as early apoptotic cells at 4 uM measured after 48 hrs by Annexin V-FITC staining based flow cytometry (reference value: 2.1%); assay type: functional
[5] = test system: A-431; assay: Antiproliferative activity against human A-431 cells assessed as inhibition of cell proliferation at 0.33 uM measured after 6 hrs by Acridine orange staining based fluorescence microscopy; assay type: functional
[6] = species: Homo sapiens; assay: Selectivity ratio of IC50 for wild type EGFR (unknown origin) to IC50 for EGFR T790M mutant (unknown origin) measured by mobility shift assay
[7] = test system: A-431; assay: Induction of apoptosis in human A-431 cells assessed as viable cells at 8 uM measured after 48 hrs by Annexin V-FITC staining based flow cytometry (reference value: 95.67%); assay type: functional; details: read-out: Activity
[8] = test system: A-431; assay: Induction of apoptosis in human A-431 cells assessed as early apoptotic cells at 0.2 uM measured after 48 hrs by Annexin V-FITC staining based flow cytometry (reference value: 2.1%); assay type: functional
[9] = biological target: Serine/threonine-protein kinase mTOR (Homo sapiens) (UniProt P42345); assay: Inhibition of mTOR (unknown origin) using FAM-labelled peptide as substrate at 1 uM incubated for 10 mins in presence of ATP measured by mobility shift assay
[10] = Inhibition of EGFR T790M mutant (unknown origin) using FAM-labelled peptide as substrate incubated for 10 mins in presence of ATP measured by mobility shift assay; parameters: species or system Homo sapiens
[11] = test system: A-431; assay: Induction of apoptosis in human A-431 cells assessed as necrotic cells at 4 uM measured after 48 hrs by Annexin V-FITC staining based flow cytometry (reference value: 0.21%); assay type: functional
[12] = species: Homo sapiens; assay: Inhibition of EGFR T790M/L858R double mutant (unknown origin) using FAM-labelled peptide as substrate at 1 uM incubated for 10 mins in presence of ATP measured by mobility shift assay
[13] = biological target: T1, Epidermal growth factor receptor (Homo sapiens, UniProt P00533); assay: Inhibition of wild type EGFR (unknown origin) using FAM-labelled peptide as substrate incubated for 10 mins in presence of ATP measured by mobility shift assay
T1 sequence (P00533 whole entry): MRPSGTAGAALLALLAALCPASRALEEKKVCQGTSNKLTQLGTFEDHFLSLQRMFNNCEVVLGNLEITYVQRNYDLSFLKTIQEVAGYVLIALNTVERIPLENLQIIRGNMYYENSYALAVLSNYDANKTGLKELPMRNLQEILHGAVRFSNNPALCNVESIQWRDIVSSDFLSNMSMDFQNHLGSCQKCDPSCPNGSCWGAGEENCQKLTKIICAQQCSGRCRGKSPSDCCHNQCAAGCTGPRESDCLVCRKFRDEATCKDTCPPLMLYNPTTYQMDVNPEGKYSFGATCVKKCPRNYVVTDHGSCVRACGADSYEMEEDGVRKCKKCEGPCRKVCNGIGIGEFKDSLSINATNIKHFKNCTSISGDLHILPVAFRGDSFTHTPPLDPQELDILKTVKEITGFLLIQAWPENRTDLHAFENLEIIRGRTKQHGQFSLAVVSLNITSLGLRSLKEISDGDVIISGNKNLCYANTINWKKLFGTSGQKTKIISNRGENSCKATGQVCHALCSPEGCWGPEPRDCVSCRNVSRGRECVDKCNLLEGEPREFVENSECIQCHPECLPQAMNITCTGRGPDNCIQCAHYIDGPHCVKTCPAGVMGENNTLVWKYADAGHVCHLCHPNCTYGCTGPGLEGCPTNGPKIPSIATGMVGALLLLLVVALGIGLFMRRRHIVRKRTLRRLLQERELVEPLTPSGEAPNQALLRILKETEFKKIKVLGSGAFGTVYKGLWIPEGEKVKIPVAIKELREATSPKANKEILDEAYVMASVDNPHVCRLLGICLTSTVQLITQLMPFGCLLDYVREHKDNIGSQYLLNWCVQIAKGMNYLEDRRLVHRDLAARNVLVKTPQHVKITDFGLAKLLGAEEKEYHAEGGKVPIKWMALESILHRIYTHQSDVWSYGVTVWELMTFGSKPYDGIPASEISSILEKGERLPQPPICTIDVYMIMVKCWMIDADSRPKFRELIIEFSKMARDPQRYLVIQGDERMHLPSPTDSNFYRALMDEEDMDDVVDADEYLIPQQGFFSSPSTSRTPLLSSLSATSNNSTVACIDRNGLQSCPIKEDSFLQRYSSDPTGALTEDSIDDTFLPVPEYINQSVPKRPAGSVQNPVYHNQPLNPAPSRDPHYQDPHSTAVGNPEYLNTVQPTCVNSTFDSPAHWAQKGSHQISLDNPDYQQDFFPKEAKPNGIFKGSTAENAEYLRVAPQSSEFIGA

[14] = species: Homo sapiens; assay: Selectivity ratio of IC50 for wild type EGFR (unknown origin) to IC50 for EGFR T790M/L858R double mutant (unknown origin) measured by mobility shift assay
[15] = test system: A-431; assay: Induction of apoptosis in human A-431 cells assessed as late apoptotic cells at 8 uM measured after 48 hrs by Annexin V-FITC staining based flow cytometry (reference value: 2.02%); assay type: functional
[16] = test system: MCF7; assay: Antiproliferative activity against human MCF7 cells assessed as inhibition of cell proliferation measured after 72 hrs by MTT assay; assay type: functional, cell-based; details: MCF7, 72 h
[17] = test system: NCI-H1975; assay: Antiproliferative activity against human NCI-H1975 cells harboring EGFR T790M/L858R double mutant assessed as inhibition of cell viability at 1 uM measured after 72 hrs by MTT assay; assay type: functional
[18] = Inhibition of EGFR T790M/L858R double mutant (unknown origin) using FAM-labelled peptide as substrate incubated for 10 mins in presence of ATP measured by mobility shift assay; parameters: species or system Homo sapiens
[19] = species: Homo sapiens; assay: Inhibition of EGFR T790M mutant (unknown origin) using FAM-labelled peptide as substrate at 1 uM incubated for 10 mins in presence of ATP measured by mobility shift assay
[20] = test system: A-431; assay: Induction of apoptosis in human A-431 cells assessed as early apoptotic cells at 8 uM measured after 48 hrs by Annexin V-FITC staining based flow cytometry (reference value: 2.1%); assay type: functional
[21] = test system: A-431; assay: Induction of apoptosis in human A-431 cells assessed as late apoptotic cells at 4 uM measured after 48 hrs by Annexin V-FITC staining based flow cytometry (reference value: 2.02%); assay type: functional
[22] = biological target: T1, Epidermal growth factor receptor; assay: Inhibition of wild type EGFR (unknown origin) using FAM-labelled peptide as substrate at 1 uM incubated for 10 mins in presence of ATP measured by mobility shift assay
[23] = test system: A-431; assay: Antiproliferative activity against human A-431 cells assessed as inhibition of cell proliferation measured after 72 hrs by MTT assay; assay type: functional, cell-based; details: A-431, 72 h
[24] = biological target: Vascular endothelial growth factor receptor 2 (Homo sapiens) (UniProt P35968); assay: Inhibition of KDR (unknown origin) using FAM-labelled peptide as substrate at 1 uM incubated for 10 mins in presence of ATP measured by mobility shift assay
Sequence of Vascular endothelial growth factor receptor 2 (Homo sapiens) (P35968 whole entry): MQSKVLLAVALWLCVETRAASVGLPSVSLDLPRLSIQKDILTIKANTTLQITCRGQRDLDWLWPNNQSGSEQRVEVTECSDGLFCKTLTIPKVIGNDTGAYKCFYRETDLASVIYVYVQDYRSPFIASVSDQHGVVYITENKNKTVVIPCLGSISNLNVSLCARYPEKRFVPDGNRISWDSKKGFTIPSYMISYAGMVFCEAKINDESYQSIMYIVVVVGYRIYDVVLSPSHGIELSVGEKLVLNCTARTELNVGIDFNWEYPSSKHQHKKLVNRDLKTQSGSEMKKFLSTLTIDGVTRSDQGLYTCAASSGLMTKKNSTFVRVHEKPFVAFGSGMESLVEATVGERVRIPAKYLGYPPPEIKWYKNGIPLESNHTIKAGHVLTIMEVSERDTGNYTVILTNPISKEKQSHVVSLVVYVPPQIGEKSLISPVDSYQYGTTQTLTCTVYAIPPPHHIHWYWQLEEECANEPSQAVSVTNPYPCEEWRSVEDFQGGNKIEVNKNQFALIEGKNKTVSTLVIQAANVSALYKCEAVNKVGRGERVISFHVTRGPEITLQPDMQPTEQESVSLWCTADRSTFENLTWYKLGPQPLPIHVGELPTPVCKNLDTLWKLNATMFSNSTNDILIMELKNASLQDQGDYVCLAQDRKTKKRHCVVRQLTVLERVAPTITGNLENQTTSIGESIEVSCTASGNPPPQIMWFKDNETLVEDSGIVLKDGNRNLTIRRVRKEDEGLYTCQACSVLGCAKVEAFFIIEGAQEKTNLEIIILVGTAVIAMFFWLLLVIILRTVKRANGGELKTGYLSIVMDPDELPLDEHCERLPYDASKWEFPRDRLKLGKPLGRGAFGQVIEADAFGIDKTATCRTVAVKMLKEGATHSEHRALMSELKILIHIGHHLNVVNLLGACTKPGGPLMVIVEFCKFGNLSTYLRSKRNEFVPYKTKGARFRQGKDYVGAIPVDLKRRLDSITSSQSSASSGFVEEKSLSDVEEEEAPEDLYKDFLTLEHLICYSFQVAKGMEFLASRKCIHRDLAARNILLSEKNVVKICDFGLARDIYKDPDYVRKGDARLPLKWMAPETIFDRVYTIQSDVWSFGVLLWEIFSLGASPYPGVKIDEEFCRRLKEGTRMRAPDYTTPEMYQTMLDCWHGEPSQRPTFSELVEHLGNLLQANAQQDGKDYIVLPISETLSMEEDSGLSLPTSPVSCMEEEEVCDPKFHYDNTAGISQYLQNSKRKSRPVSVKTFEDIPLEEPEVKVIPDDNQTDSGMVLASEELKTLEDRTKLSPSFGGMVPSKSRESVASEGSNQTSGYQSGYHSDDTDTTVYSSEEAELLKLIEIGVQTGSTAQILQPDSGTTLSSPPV

[25] = test system: A-431; assay: Induction of apoptosis in human A-431 cells assessed as necrotic cells at 0.2 uM measured after 48 hrs by Annexin V-FITC staining based flow cytometry (reference value: 0.21%); assay type: functional
[26] = test system: A-431; assay: Induction of apoptosis in human A-431 cells assessed as viable cells at 4 uM measured after 48 hrs by Annexin V-FITC staining based flow cytometry (reference value: 95.67%); assay type: functional; details: read-out: Activity
[27] = test system: A-431; assay: Induction of apoptosis in human A-431 cells assessed as late apoptotic cells at 0.2 uM measured after 48 hrs by Annexin V-FITC staining based flow cytometry (reference value: 2.02%); assay type: functional
[28] = test system: NCI-H1975; assay: Antiproliferative activity against human NCI-H1975 cells harboring EGFR T790M/L858R double mutant assessed as inhibition of cell viability at 10 uM measured after 72 hrs by MTT assay; assay type: functional
[29] = test system: NCI-H1975; assay: Antiproliferative activity against human NCI-H1975 cells harboring EGFR T790M/L858R double mutant assessed as inhibition of cell viability measured after 72 hrs by MTT assay; assay type: functional, cell-based; details: NCI-H1975, 72 h
[30] = test system: A549; assay: Antiproliferative activity against human A549 cells assessed as inhibition of cell proliferation measured after 72 hrs by MTT assay; assay type: functional, cell-based; details: A549, 72 h
[31] = test system: A-431; assay: Induction of apoptosis in human A-431 cells assessed as viable cells at 0.2 uM measured after 48 hrs by Annexin V-FITC staining based flow cytometry (reference value: 95.67%); assay type: functional; details: read-out: Activity
[32] = biological target: Hepatocyte growth factor receptor (Homo sapiens) (UniProt P08581); assay: Inhibition of c-MET (unknown origin) using FAM-labelled peptide as substrate at 1 uM incubated for 10 mins in presence of ATP measured by mobility shift assay
Sequence of Hepatocyte growth factor receptor (Homo sapiens) (P08581 whole entry): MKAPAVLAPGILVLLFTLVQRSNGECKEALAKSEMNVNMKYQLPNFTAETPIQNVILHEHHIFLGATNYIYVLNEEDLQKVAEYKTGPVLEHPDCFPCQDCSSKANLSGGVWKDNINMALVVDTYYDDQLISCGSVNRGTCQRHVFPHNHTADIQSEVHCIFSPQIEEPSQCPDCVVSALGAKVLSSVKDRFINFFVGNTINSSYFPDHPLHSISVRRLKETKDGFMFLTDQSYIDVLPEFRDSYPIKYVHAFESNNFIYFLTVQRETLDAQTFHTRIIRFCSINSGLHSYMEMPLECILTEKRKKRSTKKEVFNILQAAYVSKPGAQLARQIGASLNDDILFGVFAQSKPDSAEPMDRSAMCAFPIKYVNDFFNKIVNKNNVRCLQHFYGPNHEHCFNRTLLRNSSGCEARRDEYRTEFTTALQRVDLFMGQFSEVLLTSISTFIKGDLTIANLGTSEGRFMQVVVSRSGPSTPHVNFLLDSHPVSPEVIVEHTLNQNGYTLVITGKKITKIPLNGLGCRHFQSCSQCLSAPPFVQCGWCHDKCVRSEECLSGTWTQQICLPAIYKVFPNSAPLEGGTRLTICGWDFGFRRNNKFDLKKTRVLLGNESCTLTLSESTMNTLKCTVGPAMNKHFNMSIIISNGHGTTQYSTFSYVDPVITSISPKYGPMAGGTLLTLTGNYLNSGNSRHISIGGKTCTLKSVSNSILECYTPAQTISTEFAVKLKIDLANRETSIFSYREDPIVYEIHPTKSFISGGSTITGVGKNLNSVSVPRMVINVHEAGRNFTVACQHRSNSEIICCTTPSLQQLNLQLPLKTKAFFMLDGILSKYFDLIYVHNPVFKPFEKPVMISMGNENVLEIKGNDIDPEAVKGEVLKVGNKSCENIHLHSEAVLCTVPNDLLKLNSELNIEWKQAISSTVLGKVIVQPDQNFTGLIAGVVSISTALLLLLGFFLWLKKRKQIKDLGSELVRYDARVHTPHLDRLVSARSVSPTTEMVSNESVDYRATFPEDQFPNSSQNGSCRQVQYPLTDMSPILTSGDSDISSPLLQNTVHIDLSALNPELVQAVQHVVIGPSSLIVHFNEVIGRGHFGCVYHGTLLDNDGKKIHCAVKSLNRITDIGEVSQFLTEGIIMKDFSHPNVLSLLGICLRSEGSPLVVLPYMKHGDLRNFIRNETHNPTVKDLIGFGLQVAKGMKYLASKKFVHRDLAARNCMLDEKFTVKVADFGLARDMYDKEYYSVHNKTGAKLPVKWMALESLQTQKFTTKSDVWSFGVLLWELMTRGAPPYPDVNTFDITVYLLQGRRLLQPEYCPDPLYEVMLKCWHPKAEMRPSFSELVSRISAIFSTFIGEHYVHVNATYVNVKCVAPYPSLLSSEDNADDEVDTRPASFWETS

[33] = test system: HeLa; assay: Antiproliferative activity against human HeLa cells assessed as inhibition of cell proliferation measured after 72 hrs by MTT assay; assay type: functional, cell-based
[34] = test system: A-431; assay: Induction of cell morphological changes in human A-431 cells assessed as chromatin contraction with sharp cell edge at 0.33 uM measured after 6 hrs by Acridine orange staining based fluorescence microscopy; assay type: functional

**Q.** With `C=CC(=O)Nc1cccc(Oc2nc(Nc3cccc(C#N)c3)nc3ccsc23)c1` as the compound, how does the IC50 [1] read?
**A.** > 50 µM

**Q.** What about the Activity [2] of the same compound?
**A.** 0.97%

**Q.** And the inhibition [3]?
**A.** 31.5%

**Q.** And the Activity [4]?
**A.** 4.87%

**Q.** And the Activity [5]?
**A.** Active

**Q.** And the Selectivity ratio [6]?
**A.** > 15

**Q.** What about the viability at 8 µM [7] of the same compound?
**A.** 78.3%

**Q.** What about the Activity [8] of the same compound?
**A.** 3.29%

**Q.** And the inhibition [9]?
**A.** 9.3%

**Q.** And the IC50 [10]?
**A.** 0.065 µM

**Q.** And the Activity [11]?
**A.** 1.33%

**Q.** And the inhibition [12]?
**A.** 104%

**Q.** What about the IC50 [13] of the same compound?
**A.** > 1 µM

**Q.** What about the Selectivity ratio [14] of the same compound?
**A.** > 73

**Q.** What about the Activity [15] of the same compound?
**A.** 17.17%

**Q.** And the IC50 [16]?
**A.** 19 µM

**Q.** And the inhibition at 1 µM [17]?
**A.** 44.3%

**Q.** And the IC50 [18]?
**A.** 0.0136 µM

**Q.** What about the inhibition [19] of the same compound?
**A.** 95.9%

**Q.** What about the Activity [20] of the same compound?
**A.** 3.54%

**Q.** And the Activity [21]?
**A.** 16.41%

**Q.** What about the inhibition [22] of the same compound?
**A.** 23.5%

**Q.** And the IC50 [23]?
**A.** 3.79 µM

**Q.** What about the inhibition [24] of the same compound?
**A.** 1.1%

**Q.** What about the Activity [25] of the same compound?
**A.** 0.63%

**Q.** What about the viability at 4 µM [26] of the same compound?
**A.** 77.4%

**Q.** And the Activity [27]?
**A.** 12.66%

**Q.** What about the inhibition at 10 µM [28] of the same compound?
**A.** 79.5%

**Q.** And the IC50 [29]?
**A.** 0.699 µM

**Q.** And the IC50 [30]?
**A.** 4.34 µM

**Q.** And the viability at 0.2 µM [31]?
**A.** 83.4%

**Q.** What about the inhibition [32] of the same compound?
**A.** 6%

**Q.** And the IC50 [33]?
**A.** 6.39 µM

**Q.** What about the Activity [34] of the same compound?
**A.** Active
